# Publication PMC10412597, “Small molecule branched-chain ketoacid dehydrogenase kinase (BDK) inhibitors with opposing effects on BDK protein levels” (Nature Communications, 2023)
# What was measured:
# Design in all cases: Invitrogen kinase panel, per cent inhibition of kinase activity
# NUAK1 = NUAK1 (Homo sapiens, UniProt O60285); conditions: 10 µM, inhibitor
# Method: (§1) To discover a potent and selective BDK inhibitor, a subset of the Pfizer compound collection was screened. […] Off target activity was assessed in both CEREP and kinase panels (Supplementary Tables 2, 3).
# PRKDC = PRKDC (Homo sapiens, UniProt P78527); conditions: 10 µM, inhibitor
# Method: as §1
# PLK1 = PLK1 (Homo sapiens, UniProt P53350); conditions: 10 µM, inhibitor
# Method: as §1
# MST4 = biological target: T1, MST4 (Homo sapiens, UniProt Q9P289); conditions: 10 µM, inhibitor
# T1 construct: gene STK26
# T1 sequence (Q9P289 whole entry): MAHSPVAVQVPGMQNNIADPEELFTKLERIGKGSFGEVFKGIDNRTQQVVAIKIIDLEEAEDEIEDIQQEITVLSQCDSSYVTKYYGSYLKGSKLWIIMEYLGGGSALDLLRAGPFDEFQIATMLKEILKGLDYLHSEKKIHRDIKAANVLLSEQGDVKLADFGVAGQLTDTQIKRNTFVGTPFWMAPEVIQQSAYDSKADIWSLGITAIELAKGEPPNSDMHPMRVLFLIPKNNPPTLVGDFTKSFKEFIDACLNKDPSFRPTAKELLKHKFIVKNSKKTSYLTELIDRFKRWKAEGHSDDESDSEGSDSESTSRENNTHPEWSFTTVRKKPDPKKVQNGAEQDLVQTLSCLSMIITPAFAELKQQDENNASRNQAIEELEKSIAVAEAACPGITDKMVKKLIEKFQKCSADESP
# Method: as §1
# [1] = biological target: T2, Phosphorylase B kinase gamma catalytic chain skeletal muscle isoform (Homo sapiens, UniProt Q16816); conditions: 10 µM, inhibitor
# T2 construct: gene PHKG1
# Method: as §1
# CDK2/Cyclin-A = CDK2/Cyclin-A (Homo sapiens, UniProt P24941); conditions: 10 µM, inhibitor
# Method: as §1
# PI4KA = PI4KA (Homo sapiens, UniProt P42356); conditions: inhibitor
# Method: as §1
# MARK3 = MARK3 (Homo sapiens, UniProt P27448); conditions: 10 µM, inhibitor
# Method: as §1
# [2] = biological target: T3, Eukaryotic elongation factor-2 kinase (Homo sapiens, UniProt O00418); conditions: 10 µM, inhibitor
# T3 construct: gene EEF2K
# Method: as §1
# MARK1 = MARK1 (Homo sapiens, UniProt Q9P0L2); conditions: 10 µM, inhibitor
# Chain of MARK1 (Q9P0L2 whole entry): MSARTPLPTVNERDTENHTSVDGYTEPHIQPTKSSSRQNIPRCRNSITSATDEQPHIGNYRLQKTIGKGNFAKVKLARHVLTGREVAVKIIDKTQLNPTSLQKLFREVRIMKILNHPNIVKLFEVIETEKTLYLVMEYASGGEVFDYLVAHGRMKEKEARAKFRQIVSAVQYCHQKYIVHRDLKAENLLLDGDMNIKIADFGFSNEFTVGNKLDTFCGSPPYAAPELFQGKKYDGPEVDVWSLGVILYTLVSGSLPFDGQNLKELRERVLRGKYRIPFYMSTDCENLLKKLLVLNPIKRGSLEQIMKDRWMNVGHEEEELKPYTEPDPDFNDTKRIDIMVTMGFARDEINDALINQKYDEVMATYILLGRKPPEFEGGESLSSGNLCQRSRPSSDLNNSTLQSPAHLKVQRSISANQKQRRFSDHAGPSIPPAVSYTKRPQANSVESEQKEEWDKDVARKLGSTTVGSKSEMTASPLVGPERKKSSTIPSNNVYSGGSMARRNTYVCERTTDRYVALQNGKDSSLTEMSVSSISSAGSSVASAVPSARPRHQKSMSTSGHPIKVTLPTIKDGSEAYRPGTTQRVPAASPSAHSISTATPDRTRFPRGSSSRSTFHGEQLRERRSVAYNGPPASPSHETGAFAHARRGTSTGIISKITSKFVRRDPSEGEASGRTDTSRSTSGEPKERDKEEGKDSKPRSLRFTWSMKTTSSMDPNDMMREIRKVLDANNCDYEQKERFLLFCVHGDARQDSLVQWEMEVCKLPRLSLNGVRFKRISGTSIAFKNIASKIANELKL
# Method: as §1
# CSNK2A2 = CSNK2A2 (Homo sapiens, UniProt P19784); conditions: 10 µM, inhibitor
# Method: as §1
# MKNK1 = MKNK1 (Homo sapiens, UniProt Q9BUB5); conditions: 10 µM, inhibitor
# Method: as §1
# MYLK2 = MYLK2 (Homo sapiens, UniProt Q9H1R3); conditions: 10 µM, inhibitor
# Method: as §1
# [3] = biological target: T4, Mitogen-Activated Protein Kinase Kinase Kinase Kinase 4 (MAPK4K4) (Homo sapiens, UniProt O95819); conditions: 10 µM, inhibitor
# T4 construct: gene MAP4K4
# T4 sequence (O95819 whole entry): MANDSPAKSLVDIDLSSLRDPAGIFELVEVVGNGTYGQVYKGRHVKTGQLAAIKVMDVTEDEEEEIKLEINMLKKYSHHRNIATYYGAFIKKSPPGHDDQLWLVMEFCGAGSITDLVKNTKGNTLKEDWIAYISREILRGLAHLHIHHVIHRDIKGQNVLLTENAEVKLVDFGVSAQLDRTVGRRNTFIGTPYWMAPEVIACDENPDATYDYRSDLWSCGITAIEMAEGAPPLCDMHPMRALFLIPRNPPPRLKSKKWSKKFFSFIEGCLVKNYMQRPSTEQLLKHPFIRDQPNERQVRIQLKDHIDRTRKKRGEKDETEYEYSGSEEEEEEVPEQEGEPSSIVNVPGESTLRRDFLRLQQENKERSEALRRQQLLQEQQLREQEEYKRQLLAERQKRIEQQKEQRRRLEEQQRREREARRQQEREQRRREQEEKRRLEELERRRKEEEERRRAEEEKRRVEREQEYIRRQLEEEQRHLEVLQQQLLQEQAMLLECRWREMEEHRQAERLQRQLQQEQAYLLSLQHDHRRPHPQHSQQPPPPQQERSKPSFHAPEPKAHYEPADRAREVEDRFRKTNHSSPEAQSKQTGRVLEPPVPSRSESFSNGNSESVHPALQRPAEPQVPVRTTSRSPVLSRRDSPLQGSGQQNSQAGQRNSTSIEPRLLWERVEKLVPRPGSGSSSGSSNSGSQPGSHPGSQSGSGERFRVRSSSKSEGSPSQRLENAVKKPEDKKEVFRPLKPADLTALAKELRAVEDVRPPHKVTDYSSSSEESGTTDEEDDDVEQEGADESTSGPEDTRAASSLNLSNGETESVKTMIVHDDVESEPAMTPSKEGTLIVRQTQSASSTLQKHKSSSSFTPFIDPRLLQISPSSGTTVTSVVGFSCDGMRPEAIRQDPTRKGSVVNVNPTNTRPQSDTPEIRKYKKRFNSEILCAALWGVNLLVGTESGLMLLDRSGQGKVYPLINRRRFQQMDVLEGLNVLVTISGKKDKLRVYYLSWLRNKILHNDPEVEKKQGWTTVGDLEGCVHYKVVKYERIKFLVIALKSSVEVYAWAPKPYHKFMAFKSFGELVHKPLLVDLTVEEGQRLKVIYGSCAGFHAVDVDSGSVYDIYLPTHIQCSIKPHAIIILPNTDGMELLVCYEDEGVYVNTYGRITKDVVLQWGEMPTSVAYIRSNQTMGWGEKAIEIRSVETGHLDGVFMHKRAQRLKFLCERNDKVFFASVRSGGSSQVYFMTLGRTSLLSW
# Method: as §1
# MET = MET (Homo sapiens, UniProt P08581); conditions: 10 µM, inhibitor
# Method: as §1
# GSK3B = GSK3B (Homo sapiens, UniProt P49841); conditions: 10 µM, inhibitor
# Chain of GSK3B (P49841 whole entry): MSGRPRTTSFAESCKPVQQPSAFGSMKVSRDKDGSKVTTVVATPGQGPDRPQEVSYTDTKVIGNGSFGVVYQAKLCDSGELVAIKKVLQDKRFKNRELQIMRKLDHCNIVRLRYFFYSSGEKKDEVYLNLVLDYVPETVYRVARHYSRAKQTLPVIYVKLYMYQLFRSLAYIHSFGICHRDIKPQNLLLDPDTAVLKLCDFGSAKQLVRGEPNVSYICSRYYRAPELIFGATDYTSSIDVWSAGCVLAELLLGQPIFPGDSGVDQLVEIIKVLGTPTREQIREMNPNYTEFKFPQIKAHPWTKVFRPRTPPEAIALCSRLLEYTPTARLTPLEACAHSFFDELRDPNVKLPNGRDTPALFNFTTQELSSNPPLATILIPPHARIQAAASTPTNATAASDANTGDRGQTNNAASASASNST
# Method: as §1
# JNK2 = biological target: T5, JNK2 (Homo sapiens, UniProt P45984); conditions: 10 µM, inhibitor
# T5 construct: gene MAPK9
# Method: as §1
# MAPK14 = MAPK14 (Homo sapiens, UniProt Q16539); conditions: 10 µM, inhibitor
# Method: as §1
# KDR = KDR (Homo sapiens, UniProt P35968); conditions: 10 µM, inhibitor
# Chain of KDR (P35968 whole entry): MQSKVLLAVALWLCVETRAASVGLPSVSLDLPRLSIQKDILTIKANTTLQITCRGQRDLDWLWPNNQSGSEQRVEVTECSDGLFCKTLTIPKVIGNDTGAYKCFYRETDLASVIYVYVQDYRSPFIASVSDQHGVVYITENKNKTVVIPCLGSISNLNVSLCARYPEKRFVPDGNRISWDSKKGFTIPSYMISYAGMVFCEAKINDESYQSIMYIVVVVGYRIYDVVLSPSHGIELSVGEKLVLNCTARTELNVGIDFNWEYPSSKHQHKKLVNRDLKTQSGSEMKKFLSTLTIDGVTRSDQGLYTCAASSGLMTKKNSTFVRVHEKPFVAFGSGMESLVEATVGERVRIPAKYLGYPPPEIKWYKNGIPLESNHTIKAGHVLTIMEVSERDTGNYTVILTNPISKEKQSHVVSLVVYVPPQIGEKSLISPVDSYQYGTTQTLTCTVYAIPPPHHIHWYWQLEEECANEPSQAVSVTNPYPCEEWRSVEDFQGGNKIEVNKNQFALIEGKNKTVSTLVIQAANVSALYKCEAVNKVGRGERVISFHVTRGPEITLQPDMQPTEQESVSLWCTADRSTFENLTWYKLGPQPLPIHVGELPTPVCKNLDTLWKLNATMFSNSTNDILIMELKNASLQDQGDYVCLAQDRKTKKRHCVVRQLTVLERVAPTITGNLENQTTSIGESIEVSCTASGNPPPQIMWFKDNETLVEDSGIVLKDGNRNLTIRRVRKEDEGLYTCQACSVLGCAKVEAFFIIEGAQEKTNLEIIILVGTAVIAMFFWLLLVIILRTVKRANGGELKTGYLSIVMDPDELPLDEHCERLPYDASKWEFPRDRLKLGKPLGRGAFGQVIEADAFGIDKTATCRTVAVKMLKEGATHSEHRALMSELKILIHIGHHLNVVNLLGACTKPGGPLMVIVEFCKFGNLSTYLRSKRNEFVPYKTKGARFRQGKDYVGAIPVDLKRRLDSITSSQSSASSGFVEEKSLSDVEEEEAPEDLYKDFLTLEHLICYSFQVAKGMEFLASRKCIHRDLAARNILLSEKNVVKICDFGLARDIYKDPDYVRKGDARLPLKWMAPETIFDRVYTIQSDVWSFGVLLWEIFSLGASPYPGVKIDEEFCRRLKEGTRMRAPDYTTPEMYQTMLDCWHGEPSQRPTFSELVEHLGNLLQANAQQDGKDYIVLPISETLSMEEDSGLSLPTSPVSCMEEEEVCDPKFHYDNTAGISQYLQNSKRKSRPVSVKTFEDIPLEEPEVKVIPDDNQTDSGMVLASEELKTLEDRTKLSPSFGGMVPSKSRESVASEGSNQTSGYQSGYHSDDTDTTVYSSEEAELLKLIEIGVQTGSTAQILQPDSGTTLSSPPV
# Method: as §1
# MAPK13 = MAPK13 (Homo sapiens, UniProt O15264); conditions: 10 µM, inhibitor
# Method: as §1
# NEK6 = NEK6 (Homo sapiens, UniProt Q9HC98); conditions: 10 µM, inhibitor
# Method: as §1
# HER4 = biological target: T6, HER4 (Homo sapiens, UniProt Q15303); conditions: 10 µM, inhibitor
# T6 construct: gene ERBB4
# Method: as §1
# MAPK1 = MAPK1 (Homo sapiens, UniProt P28482); conditions: 10 µM, inhibitor
# Method: as §1
# SRPK1 = SRPK1 (Homo sapiens, UniProt Q96SB4); conditions: 10 µM, inhibitor
# Method: as §1
# [4] = biological target: T7, Epidermal Growth Factor Receptor (Homo sapiens, UniProt P00533); conditions: 10 µM, inhibitor
# T7 construct: gene EGFR
# Method: as §1
# PRKCB2 = biological target: T8, PRKCB2 (Homo sapiens, UniProt P05771); conditions: 10 µM, inhibitor
# T8 construct: gene PRKCB; isoform beta2
# T8 sequence (P05771 whole entry, canonical isoform): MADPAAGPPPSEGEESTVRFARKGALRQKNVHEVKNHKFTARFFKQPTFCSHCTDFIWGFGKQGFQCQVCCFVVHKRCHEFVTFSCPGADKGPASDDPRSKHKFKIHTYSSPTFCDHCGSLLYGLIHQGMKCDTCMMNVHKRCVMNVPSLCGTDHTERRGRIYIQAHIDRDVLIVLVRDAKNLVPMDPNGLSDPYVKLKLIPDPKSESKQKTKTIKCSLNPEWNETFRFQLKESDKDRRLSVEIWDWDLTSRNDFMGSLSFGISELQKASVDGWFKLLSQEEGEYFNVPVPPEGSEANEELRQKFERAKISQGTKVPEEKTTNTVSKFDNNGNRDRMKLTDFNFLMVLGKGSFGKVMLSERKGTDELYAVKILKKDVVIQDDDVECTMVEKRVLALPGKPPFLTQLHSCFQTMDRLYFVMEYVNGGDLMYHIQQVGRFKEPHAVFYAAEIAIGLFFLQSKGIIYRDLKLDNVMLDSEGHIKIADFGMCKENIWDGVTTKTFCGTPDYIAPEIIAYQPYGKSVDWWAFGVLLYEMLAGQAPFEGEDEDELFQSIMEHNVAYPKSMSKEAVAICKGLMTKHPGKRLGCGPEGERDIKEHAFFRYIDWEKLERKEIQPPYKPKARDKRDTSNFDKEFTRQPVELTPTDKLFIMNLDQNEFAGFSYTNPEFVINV
# Method: as §1
smiles,measurement,setting,value
"CCC1(COc2ccc(-c3csc(-c4ccccc4C(=O)O)n3)cn2)CC1 [PF-07247685, 2-(4-{6-[(1-ethylcyclopropyl)methoxy]pyridin-3-yl}-1,3-thiazol-2-yl)benzoic acid]",ATP = Km % Inhibition PF-07247685,NUAK1,-18.2%
same,ATP = Km % Inhibition PF-07247685,PRKDC,5.4%
same,ATP = Km % Inhibition PF-07247685,PLK1,10.1%
same,ATP = 1 mM % Inhibition PF-07247685,MST4,-2.9%
same,ATP = Km % Inhibition PF-07247685,MST4,2.9%
same,ATP = Km % Inhibition PF-07247685,[1],2.2%
same,ATP = 1 mM % Inhibition PF-07247685,CDK2/Cyclin-A,-1.4%
same,ATP = Km % Inhibition PF-07247685,CDK2/Cyclin-A,1.2%
same,ATP = 10 uM % Inhibition PF-07247685,PI4KA,-3.1%
same,ATP = Km % Inhibition PF-07247685,MARK3,2.1%
same,ATP = Km % Inhibition PF-07247685,[2],-1.5%
same,ATP = 1 mM % Inhibition PF-07247685,MARK1,7.5%
same,ATP = Km % Inhibition PF-07247685,MARK1,4.3%
same,ATP = 1 mM % Inhibition PF-07247685,CSNK2A2,1.9%
same,ATP = Km % Inhibition PF-07247685,CSNK2A2,7.5%
same,ATP = Km % Inhibition PF-07247685,MKNK1,0.5%
same,ATP = 1 mM % Inhibition PF-07247685,MYLK2,1.7%
same,ATP = Km % Inhibition PF-07247685,MYLK2,1.4%
same,ATP = 1 mM % Inhibition PF-07247685,[3],3.2%
same,ATP = Km % Inhibition PF-07247685,[3],25.5%
same,ATP = 1 mM % Inhibition PF-07247685,MET,-2.2%
same,ATP = Km % Inhibition PF-07247685,MET,-0.3%
same,ATP = 1 mM % Inhibition PF-07247685,GSK3B,3.7%
same,ATP = Km % Inhibition PF-07247685,GSK3B,11.0%
same,ATP = 100 uM % Inhibition PF-07247685,JNK2,4.3%
same,ATP = 1 mM % Inhibition PF-07247685,MAPK14,7.1%
same,ATP = Km % Inhibition PF-07247685,MAPK14,3.5%
same,ATP = 1 mM % Inhibition PF-07247685,KDR,0.1%
same,ATP = Km % Inhibition PF-07247685,KDR,2.0%
same,ATP = Km % Inhibition PF-07247685,MAPK13,-0.7%
same,ATP = Km % Inhibition PF-07247685,NEK6,1.2%
same,ATP = Km % Inhibition PF-07247685,HER4,7.2%
same,ATP = 1 mM % Inhibition PF-07247685,MAPK1,2.4%
same,ATP = Km % Inhibition PF-07247685,MAPK1,7.0%
same,ATP = Km % Inhibition PF-07247685,SRPK1,12.6%
same,ATP = 1 mM % Inhibition PF-07247685,[4],1.2%
same,ATP = Km % Inhibition PF-07247685,[4],-2.6%
same,ATP = 1 mM % Inhibition PF-07247685,PRKCB2,4.0%
same,ATP = Km % Inhibition PF-07247685,PRKCB2,9.4%
"O=C(O)c1sc2cc(F)sc2c1Cl [PF-07208254, 3-chloro-5-fluorothieno[3,2-b]thiophene-2-carboxylic acid]",ATP = Km % Inhibition PF-07208254,NUAK1,10.3%
same,ATP = Km % Inhibition PF-07208254,PRKDC,8.3%
same,ATP = Km % Inhibition PF-07208254,PLK1,1.8%
same,ATP = 1 mM % Inhibition PF-07208254,MST4,3.7%
same,ATP = Km % Inhibition PF-07208254,MST4,16.7%
same,ATP = Km % Inhibition PF-07208254,[1],1.8%
same,ATP = 1 mM % Inhibition PF-07208254,CDK2/Cyclin-A,-1.2%
same,ATP = Km % Inhibition PF-07208254,CDK2/Cyclin-A,14.6%
same,ATP = 10 uM % Inhibition PF-07208254,PI4KA,8.2%
same,ATP = Km % Inhibition PF-07208254,MARK3,5.0%
same,ATP = Km % Inhibition PF-07208254,[2],2.3%
same,ATP = 1 mM % Inhibition PF-07208254,MARK1,8.4%
same,ATP = Km % Inhibition PF-07208254,MARK1,2.1%
same,ATP = 1 mM % Inhibition PF-07208254,CSNK2A2,7.3%
same,ATP = Km % Inhibition PF-07208254,CSNK2A2,24.5%
same,ATP = Km % Inhibition PF-07208254,MKNK1,15.1%
same,ATP = 1 mM % Inhibition PF-07208254,MYLK2,-0.1%
same,ATP = Km % Inhibition PF-07208254,MYLK2,-3.6%
same,ATP = 1 mM % Inhibition PF-07208254,[3],-7.5%
same,ATP = Km % Inhibition PF-07208254,[3],11.9%
same,ATP = 1 mM % Inhibition PF-07208254,MET,-10.2%
same,ATP = Km % Inhibition PF-07208254,MET,-3.1%
same,ATP = 1 mM % Inhibition PF-07208254,GSK3B,0.7%
same,ATP = Km % Inhibition PF-07208254,GSK3B,9.7%
same,ATP = 100 uM % Inhibition PF-07208254,JNK2,-3.0%
same,ATP = 1 mM % Inhibition PF-07208254,MAPK14,4.0%
same,ATP = Km % Inhibition PF-07208254,MAPK14,3.0%
same,ATP = 1 mM % Inhibition PF-07208254,KDR,5.6%
same,ATP = Km % Inhibition PF-07208254,KDR,1.1%
same,ATP = Km % Inhibition PF-07208254,MAPK13,3.6%
same,ATP = Km % Inhibition PF-07208254,NEK6,7.1%
same,ATP = Km % Inhibition PF-07208254,HER4,-11.4%
same,ATP = 1 mM % Inhibition PF-07208254,MAPK1,2.8%
same,ATP = Km % Inhibition PF-07208254,MAPK1,9.4%
same,ATP = Km % Inhibition PF-07208254,SRPK1,2.8%
same,ATP = 1 mM % Inhibition PF-07208254,[4],-7.2%
same,ATP = Km % Inhibition PF-07208254,[4],-0.9%
same,ATP = 1 mM % Inhibition PF-07208254,PRKCB2,1.9%
same,ATP = Km % Inhibition PF-07208254,PRKCB2,-1.7%
